Test results from publication PMC10067098 (Cancer Medicine, 2023).

Test: plasma pharmacokinetics, non‐compartmental analysis
Format: in vivo, human
Settings: Day 1 in Cycle 1 or Day 1 in Cycle 2; data not shown
Procedure: In addition, trough plasma concentration (C trough) was measured on Day 7 in Cycle 0, and Day 1 in Cycles 1 and 2.
TEAEs were tabulated by system organ class (SOC) and preferred term (PT). For the other safety and PK endpoints, continuous data were described by mean and standard deviation (SD), median and range, and categorical data were summarized by frequency. The proportionality of the PK parameters, C max and AUC10h, was evaluated using a power model (see Table 4). For the efficacy endpoints, best overall response was tabulated as a frequency table, and the time‐to‐event data such as duration of response, PFS, and OS was evaluated using Kaplan–Meier method. All analyses were conducted using SAS® Version 9.4 (SAS Institute).

Compound: COc1cc2ncnc(Nc3ccc(F)c(Cl)c3)c2cc1OCCCN1CCOCC1 [gefitinib]
- mean C max and AUC among cohorts: no specific pattern was observed
